Assay results as given in US5618809A, “Indolocarbazoles from saccharothrix aerocolonigenes copiosa subsp. nov SCC 1951 ATCC 53856” (Schering Corporation, priority 1995, dated 1997).

Legend:
PKC (from rats' brains) = settings: cited from earlier work
MLCK = biological target: T1, MLCK (Gallus gallus, UniProt P11799); test: MLCK inhibition (native enzyme from chicken gizzard, calmodulin activated, Kemptamide substrate); format: biochemical
T1 construct: Kemptamide as substrate
Source text: (§1) The PKC was partially purified from rat brain and assayed in the presence of its activators: Ca^2+, phosphatidylserine and 1-oleoyl-2-acetylglycerol. Histone III-S was used as phosphate acceptor. The MLCK was native enzyme from chicken gizzard fully activated by calmodulin. Kemptamide was used as phosphate acceptor.

PKC = PKC inhibition (partially purified PKC, Ca2+, phosphatidylserine and 1-oleoyl-2-acetylglycerol, histone III-S substrate); format: biochemical, rat
Source text: as §1

SHR and DOC-rats = settings: cited from earlier work

Row | SMILES | PKC inhibitory potency (in words) (PKC (from rats' brains)) | potency at MLCK (in words) (MLCK) | potency at PKC (in words) (PKC) | lowering of blood pressure (in words) (SHR and DOC-rats)
1 | CC12OC(CC1(O)C(=O)O)n1c3ccccc3c3c4c(c5c6ccccc6n2c5c31)CNC4=O (centres unmarked) [Example K252b] | inhibitory to PKC (from rats' brains) with good potency, in the nanomolar range |  |  | 
2 | COC(=O)[C@@]1(O)C[C@H]2O[C@]1(C)n1c3ccccc3c3c4c(c5c6ccccc6n2c5c31)C(=O)NC4 [Example K-252a] | inhibitory to PKC (from rats' brains) with good potency, in the nanomolar range | nanomolar potencies | nanomolar potencies | lowers blood pressure in SHR and DOC-rats
